Test results: US12060349B2, “Glucosylceramide synthase inhibitors” (Genzyme Corporation, priority 2012, dated 2024)
Where two headings read alike, the source gives them in different places.

Legend:
[1] = target: T1, glucosylceramide synthase (Homo sapiens, UniProt Q16739); test: microsomal assay measuring conversion of ceramide to glucosylceramide by HPLC (GCS IC50); assay type: biochemical; conditions: concentration causing 50% inhibition of glucosylceramide synthase activity
T1 construct: Microsomes were isolated from A375 human melanoma cells; endogenous in cells; host or cells: A375 human melanoma cells (microsomal fraction, 100,000 g pellet)
T1 sequence (Q16739 1-394): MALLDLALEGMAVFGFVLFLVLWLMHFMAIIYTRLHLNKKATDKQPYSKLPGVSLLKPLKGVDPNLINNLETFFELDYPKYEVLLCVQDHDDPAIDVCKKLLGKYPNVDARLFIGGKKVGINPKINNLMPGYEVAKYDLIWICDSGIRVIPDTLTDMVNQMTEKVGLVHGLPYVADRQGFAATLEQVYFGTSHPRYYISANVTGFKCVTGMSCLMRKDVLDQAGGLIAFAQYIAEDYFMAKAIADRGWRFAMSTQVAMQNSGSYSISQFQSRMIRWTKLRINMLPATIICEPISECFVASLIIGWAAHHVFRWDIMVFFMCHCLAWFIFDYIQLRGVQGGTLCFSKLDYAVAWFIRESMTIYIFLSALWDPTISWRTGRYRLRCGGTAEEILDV
In short: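 Microsomal preparation assayed for glucosylceramide synthase by direct HPLC measurement of ceramide conversion to glucosylceramide. GCS IC50 is the compound concentration giving 50% inhibition of enzyme activity.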

[2] = test system: GM3 expression on the cell surface, B16 mouse melanoma cells; test: cell based phenotypic assay, cell surface GM3 by antibody mediated immunofluorescence, B16 (GM3 B16 IC50); conditions: 50% inhibition of GM3 expression on the cell surface
In short: (§1)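 Two melanoma lines, mouse B16 and human C32, were treated and surface GM3 quantified by antibody immunofluorescence for IC50. A parallel viability readout gives the concentration killing 50% of cells, with values over 10 indicating no cell death.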

[3] = test system: GM3 expression on the cell surface, C32 human melanoma cells; test: cell based phenotypic assay, cell surface GM3 by antibody mediated immunofluorescence, C32 (GM3 C32 IC50); conditions: 50% inhibition of GM3 expression on the cell surface
In short: as §1

[4] = test system: B16 mouse melanoma cells; test: cell viability in the B16 cell-based assay (Viability, B16 IC50)
In short: as §1

[5] = test system: C32 human melanoma cells; test: cell viability in the C32 cell-based assay (Viability, C32 IC50); conditions: concentration causing 50% cell death, values greater than 10 represent a lack of cell death
In short: as §1

[6] = Mus musculus, read-out: GM3 B16 IC50, B16 mouse melanoma cells
[7] = Homo sapiens, read-out: GM3 C32 IC50, C32 human melanoma cells
[8] = read-out: Viability, B16 IC50, B16 cells, concentration causing 50% cell death, values greater than 10 represent a lack of cell death
[9] = read-out: Viability, C32 IC50, C32 cells
[10] = Mus musculus, B16 mouse melanoma cells, read-out: GM3 B16 IC50
[11] = Homo sapiens, C32 human melanoma cells, read-out: GM3 C32 IC50
[12] = Mus musculus, B16, B16 cells, concentration causing 50% cell death, values greater than 10 represent a lack of cell death, read-out: Viability, B16 IC50
[13] = Homo sapiens, C32, C32 cells, read-out: Viability, C32 IC50
[14] = Mus musculus, B16, read-out: Viability, B16 IC50
[15] = Homo sapiens, C32, read-out: Viability, C32 IC50, C32 cells
[16] = B16 mouse melanoma cells, read-out: GM3 B16 IC50
[17] = C32 human melanoma cells, read-out: GM3 C32 IC50
[18] = B16 cells, concentration causing 50% cell death, values greater than 10 represent a lack of cell death, read-out: Viability, B16 IC50
[19] = C32 cells, read-out: Viability, C32 IC50

Row | Molecule | IC50 [1] [µM] | IC50 [2, 6] [µM] | IC50 [3, 7] [µM] | IC50 [2, 10] [µM] | IC50 [3, 11] [µM] | IC50 [4, 12] [µM] | IC50 [5, 13] [µM] | further results
1 | COCCOc1ccc(C#CC(C)(C)NC(=O)OC2CN3CCC2CC3)cc1 (stereo not shown) [Example 329, Quinuclidin-3-yl (4-(4-(2-methoxyethoxy)phenyl)-2-methylbut-3-yn-2-yl)carbamate] | 3.14 | 2.7 | 0.284 |  |  |  |  | IC50 [4, 8]: ≥ 10 µM; IC50 [5, 9]: ≥ 10 µM
2 | COCCCOc1ccc(C#CC(C)(C)NC(=O)OC2CN3CCC2CC3)cc1 (stereo not shown) [Example 331, Quinuclidin-3-yl (4-(4-(3-methoxypropoxy)phenyl)-2-methylbut-3-yn-2-yl)carbamate] | 1.33 | 1.76 | 0.118 |  |  |  |  | IC50 [4, 8]: ≥ 10 µM; IC50 [5, 9]: ≥ 10 µM
3 | CCC1(NC(=O)NC(C)(C)C#Cc2ccc(COCc3cccnc3)cc2)CN2CCC1CC2 (stereo not shown) [Example 332, 1-(3-Ethylquinuclidin-3-yl)-3-(2-methyl-4-(4-((pyridin-3-ylmethoxy)methyl)phenyl)but-3-yn-2-yl)urea] | 0.0494 |  |  | 0.945 | 0.0155 | ≥ 10 | ≥ 10 | 
4 | CCCC1(NC(=O)NC(C)(C)C#Cc2ccc(COCc3cccnc3)cc2)CN2CCC1CC2 (stereo not shown) [Example 333, 1-(2-Methyl-4-(4-((pyridin-3-ylmethoxy)methyl)phenyl)but-3-yn-2-yl)-3-(3-propylquinuclidin-3-yl)urea] | 0.0161 |  |  | 0.413 | 0.00618 | ≥ 10 | 3.16 | 
5 | CC(C)(C)CCS(=O)(=O)c1ccc(C#CC(C)(C)NC(=O)OC2CN3CCC2CC3)cc1 (stereo not shown) [Example 334, Quinuclidin-3-yl (4-(4-((3,3-dimethylbutyl)sulfonyl)phenyl)-2-methylbut-3-yn-2-yl)carbamate] | 0.0802 | 0.317 | 0.0118 |  |  |  |  | IC50 [4, 14]: 3.28 µM; IC50 [5, 15]: ≥ 10 µM
6 | CC(C)(C)CCS(=O)(=O)c1ccc(C#CC(C)(C)NC(=O)OC2CCN3CCC2CC3)cc1 (stereo not shown) [Example 335, 1-Azabicyclo[3.2.2]nonan-4-yl (4-(4-((3,3-dimethylbutyl)sulfonyl)phenyl)-2-methylbut-3-yn-2-yl)carbamate] | 0.0146 |  |  | 0.193 | 0.00432 | 2.15 | 1 | 
7 | CC(C)(C)CCS(=O)(=O)c1ccc(C#CC(C)(C)NC(=O)NC2(C)CCN3CCC2CC3)cc1 (stereo not shown) [Example 336, 1-(4-(4-((3,3-Dimethylbutyl)sulfonyl)phenyl)-2-methylbut-3-yn-2-yl)-3-(4-methyl-1-azabicyclo[3.2.2]nonan-4-yl)urea] | 0.0012 |  |  | 0.0388 | 0.000902 | ≥ 10 | ≥ 10 | 
8 | CC(C)(C)CCS(=O)(=O)c1ccc(C#CC(C)(C)NC(=O)NC2(C)CN3CCC2CC3)cc1 (stereo not shown) [Example 337, 1-(4-(4-((3,3-Dimethylbutyl)sulfonyl)phenyl)-2-methylbut-3-yn-2-yl)-3-(3-methylquinuclidin-3-yl)urea] | 0.0145 |  |  | 0.0941 | 0.00254 | 2.15 | 1 | 
9 | CCC1(NC(=O)NC(C)(C)C#Cc2ccc(S(=O)(=O)CCC(C)(C)C)cc2)CN2CCC1CC2 (stereo not shown) [Example 338, 1-(4-(4-((3,3-Dimethylbutyl)sulfonyl)phenyl)-2-methylbut-3-yn-2-yl)-3-(3-ethylquinuclidin-3-yl)urea] | 0.00445 |  |  | 0.0721 | 0.000984 | 2.15 | 1 | 
10 | COCC(C)(C)c1ccc(C#CC(C)(C)NC(=O)NC2(C)CN3CCC2CC3)cc1 (stereo not shown) [Example 339, 1-(4-(4-(1-Methoxy-2-methylpropan-2-yl)phenyl)-2-methylbut-3-yn-2-yl)-3-(3-methylquinuclidin-3-yl)urea] | 0.136 |  |  | 0.72 | 0.0257 | ≥ 10 | ≥ 10 | 
11 | COCCCOc1ccc(-c2nc(C(C)(C)NC(=O)OC3CN4CCC3CC4)cs2)cc1 (stereo not shown) [Example 340, Quinuclidin-3-yl (2-(2-(4-(3-methoxypropoxy)phenyl)thiazol-4-yl)-propan-2-yl)carbamate] | 0.17 | 0.197 | 0.0426 |  |  |  |  | IC50 [4, 14]: ≥ 10 µM; IC50 [5, 15]: ≥ 10 µM
12 | COCCCOc1ccc(-c2nc(C(C)(C)NC(=O)OC3CCN4CCC3CC4)cs2)cc1 (stereo not shown) [Example 341, 1-Azabicyclo[3.2.2]nonan-4-yl (2-(2-(4-(3-methoxypropoxy)phenyl)thiazol-4-yl)propan-2-yl)carbamate] | 0.0193 |  |  | 0.0904 | 0.00719 | ≥ 10 | ≥ 10 | 
13 | COCCCOc1ccc(-c2nc(C(C)(C)NC(=O)N3CCN4CCC3CC4)cs2)cc1 [Example 342, N-(2-(2-(4-(3-Methoxypropoxy)phenyl)thiazol-4-yl)propan-2-yl)-1,4-diazabicyclo[3.2.2]nonane-4-carboxamide] | 0.666 |  |  | 0.393 | 0.0851 | ≥ 10 | ≥ 10 | 
14 | COCCOc1ccc(-c2nc(C(C)(C)NC(=O)OC3CN4CCC3CC4)cs2)cc1 (stereo not shown) [Example 343, Quinuclidin-3-yl (2-(2-(4-(2-methoxyethoxy)phenyl)thiazol-4-yl)propan-2-yl)carbamate] | 0.36 | 0.106 | 0.0198 |  |  |  |  | IC50 [4, 14]: ≥ 10 µM; IC50 [5, 15]: 1 µM
15 | COCCOc1ccc(-c2nc(C(C)(C)NC(=O)OC3CCN4CCC3CC4)cs2)cc1 (stereo not shown) [Example 344, 1-Azabicyclo[3.2.2]nonan-4-yl (2-(2-(4-(2-methoxyethoxy)phenyl)thiazol-4-yl)propan-2-yl)carbamate] | 0.0658 |  |  | 0.0564 | 0.00876 | ≥ 10 | 1 | 
16 | COCCOc1ccc(-c2nc(C(C)(C)NC(=O)N3CCN4CCC3CC4)cs2)cc1 [Example 345, N-(2-(2-(4-(2-Methoxyethoxy)phenyl)thiazol-4-yl)propan-2-yl)-1,4-diazabicyclo[3.2.2]nonane-4-carboxamide] | 2.54 |  |  | 0.369 | 0.091 | ≥ 10 | 3.16 | 
17 | COCCOc1ccc(-c2ccc(C(C)(C)NC(=O)OC3CN4CCC3CC4)nc2)cc1 (stereo not shown) [Example 346, Quinuclidin-3-yl 2-(5-(4-(2-methoxyethoxy)phenyl)pyridin-2-yl)propan-2-ylcarbamate] | 0.0507 | 0.266 | 0.0111 |  |  |  |  | IC50 [4, 14]: ≥ 10 µM; IC50 [5, 15]: 3.16 µM
18 | COCCOc1ccc(-c2ccc(C(C)(C)NC(=O)OC3CCN4CCC3CC4)nc2)cc1 (stereo not shown) [Example 347, 1-Azabicyclo[3.2.2]nonan-4-yl 2-(5-(4-(2-methoxyethoxy)phenyl)pyridin-2-yl)propan-2-ylcarbamate] | 0.0368 |  |  | 0.15 | 0.00582 | ≥ 10 | 1.41 | 
19 | N-(2-(4-(4-(Methylcarbamoyl)phenoxy)phenyl)propan-2-yl)-1,4-diazabicyclo[3.2.2]nonane-4-carboxamide [Example 305] | 0.399 |  |  |  |  |  |  | IC50 [2, 16]: 0.299 µM; IC50 [3, 17]: 0.0195 µM; IC50 [4, 18]: ≥ 10 µM; IC50 [5, 19]: 1 µM
20 | N-(4-Methyl-1-azabicyclo[3.2.2]nonan-4-yl)-4-(3-(pyrimidin-5-yl)phenyl)piperazine-1-carboxamide [Example 27] | 16.5 |  |  |  |  |  |  | IC50 [2, 16]: > 10 µM; IC50 [3, 17]: 0.798 µM; IC50 [4, 18]: ≥ 10 µM; IC50 [5, 19]: ≥ 10 µM
